Consider 16 molecules from ChEMBL document CHEMBL1201862, “PubChem BioAssay data set” (2004).

Active and inactive are the calls of the source.

Broadly, the AC50 is the concentration at which the activity in the assay is half-maximal. A word on the EC50: it is the concentration at which the effect is half-maximal. In general, GI50 refers to the concentration at which growth is held to half of that of the control. In general, CC50 refers to the concentration giving 50% cytotoxicity.

A short description of experiment [1]: T. cruzi growth inhibition in host cells, dose response, cell-based, plate reader, dry powder, set 2 (AID 652275). The class given is functional.
In experiment [2] the target is Metabotropic glutamate receptor 5 (Rattus norvegicus, UniProt P31424). The experiment is described as follows: Identification of a glycine sulfonamide based non-MPEP site positive allosteric potentiator (PAM) of mGlu5 (calcium_assay). The class given is functional.
Metabotropic glutamate receptor 5, sequence (P31424 whole entry): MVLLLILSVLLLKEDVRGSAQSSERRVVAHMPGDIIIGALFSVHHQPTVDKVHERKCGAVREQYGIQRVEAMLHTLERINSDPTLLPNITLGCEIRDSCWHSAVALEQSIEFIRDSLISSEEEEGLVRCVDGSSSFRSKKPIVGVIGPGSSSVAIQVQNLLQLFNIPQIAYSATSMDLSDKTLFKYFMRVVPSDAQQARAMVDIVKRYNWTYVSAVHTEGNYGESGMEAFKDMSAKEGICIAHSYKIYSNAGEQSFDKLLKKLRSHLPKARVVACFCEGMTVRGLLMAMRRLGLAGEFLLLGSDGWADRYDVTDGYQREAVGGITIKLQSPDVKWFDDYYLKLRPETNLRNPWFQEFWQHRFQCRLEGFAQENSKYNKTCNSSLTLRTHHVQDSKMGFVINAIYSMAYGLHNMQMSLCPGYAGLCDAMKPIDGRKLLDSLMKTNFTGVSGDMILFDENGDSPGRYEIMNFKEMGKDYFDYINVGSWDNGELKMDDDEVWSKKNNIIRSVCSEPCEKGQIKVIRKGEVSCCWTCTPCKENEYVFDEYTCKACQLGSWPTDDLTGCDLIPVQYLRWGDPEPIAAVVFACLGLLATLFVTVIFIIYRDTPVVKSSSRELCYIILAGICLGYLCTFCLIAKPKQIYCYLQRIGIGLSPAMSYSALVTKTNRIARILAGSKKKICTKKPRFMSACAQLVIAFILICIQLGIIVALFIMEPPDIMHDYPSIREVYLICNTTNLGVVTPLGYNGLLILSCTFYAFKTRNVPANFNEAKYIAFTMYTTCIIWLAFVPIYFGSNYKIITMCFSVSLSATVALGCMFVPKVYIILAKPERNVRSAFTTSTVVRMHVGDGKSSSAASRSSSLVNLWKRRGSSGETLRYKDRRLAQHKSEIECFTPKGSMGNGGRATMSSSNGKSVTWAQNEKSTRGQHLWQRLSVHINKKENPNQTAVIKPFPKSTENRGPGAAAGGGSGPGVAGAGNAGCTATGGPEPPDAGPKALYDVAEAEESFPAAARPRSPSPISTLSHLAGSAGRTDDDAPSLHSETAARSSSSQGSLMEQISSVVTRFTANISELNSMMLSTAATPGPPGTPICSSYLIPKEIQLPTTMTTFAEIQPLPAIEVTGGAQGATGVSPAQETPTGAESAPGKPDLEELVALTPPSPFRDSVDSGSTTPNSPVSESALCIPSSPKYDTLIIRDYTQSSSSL
Experiment [3] is described as follows: Shn3 3'UTR reporter inhibitors, dose response, cell-based, Clone20 osteoblasts, firefly luciferase, cherry-picked (AID 624132).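 Note: firefly luciferase luminescence from reporter carrying the Shn3 3'UTR in osteoblasts.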 Type of experiment: functional.
A short description of experiment [4]: HepG2 cell cytotoxicity, dose response, cytotoxicity control for Shn3 inhibitor project, CellTiter-Glo, cherry-picked (AID 624134). The class given is functional, cell-based. A general note: ATP-based viability assays read luminescence as a measure of living cells.
Experiment [5] can be described thus: control 3'UTR Renilla luciferase suppression, dose response, counter-screen for Shn3 inhibitor project, cell-based, Clone20-Shn3RL, cherry-picked (AID 624133). Type of experiment: functional.
The target of experiment [6] is T1, Protein Wnt-3a (Mus musculus, UniProt P27467). The experiment is described as follows: Wnt3a-driven reporter signaling inhibition, dose response, selectivity assay for Gli-SUFU antagonist project, Wnt-LIGHT cells, luminescence (AID 651570).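 Note: Wnt-LIGHT reporter cells stimulated with conditioned medium from Wnt3a-producing cells.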 The class given is functional. As to conditions: read-out: IC50_Mean.
T1 sequence (P27467 whole entry): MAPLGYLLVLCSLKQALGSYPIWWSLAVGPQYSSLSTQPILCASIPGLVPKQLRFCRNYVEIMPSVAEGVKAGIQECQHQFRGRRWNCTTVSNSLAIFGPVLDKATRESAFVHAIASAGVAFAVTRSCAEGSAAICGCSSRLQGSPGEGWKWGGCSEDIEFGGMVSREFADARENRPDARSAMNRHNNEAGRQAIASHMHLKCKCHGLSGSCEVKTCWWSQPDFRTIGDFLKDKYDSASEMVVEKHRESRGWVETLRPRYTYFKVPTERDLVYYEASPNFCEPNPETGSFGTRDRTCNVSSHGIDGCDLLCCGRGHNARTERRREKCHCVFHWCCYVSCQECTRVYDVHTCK
Experiment [7] is described as follows: reduction of Shn3 3'UTR firefly luciferase signal, dose response, Schnurri-3 inhibitor project, cell-based, Clone20 osteoblasts, cherry-pick, set 2 (AID 720490).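 Note: actives lower the luminescence signal as inhibitors.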 The class given is functional.
Experiment [8] is described as follows: inhibitors of control Renilla luciferase reporter, dose response, counter-screen for Shn3 3'UTR targeting project, Clone20-Shn3RL cells, dual-Glo, cherry-pick, set 2 (AID 720724). Type of experiment: functional, cell-based. As to conditions: Dual-Go Shn3RL.
Experiment [9] is described as follows: inhibitors of HIV Env-driven cell fusion, dose response, cherry-pick (AID 652057). The class given is functional, cell-based.
Experiment [10] in a line: CEM21 lymphoblast cell cytotoxicity, dose response, cytotoxicity control for viral fusion inhibitor project, CellTiter-Glo luminescence, cherry-picked (AID 652042).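 Note: potency for signal decrease meaning cytotoxicity.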 The class given is functional, cell-based.
Experiment [11] can be described thus: ZM109 Env clade C HIV-1 fusion inhibitors, dose response, HeLa effector, CEM target cells, luciferase, cherry-pick (AID 652058). Type of experiment: functional, cell-based.
A short description of experiment [12]: HIV Env cell-cell fusion inhibitors, dose response, HIV entry, plate reader, dry powder (AID 687023). The class given is functional, cell-based.
The nature of experiment [13]: CEM21 cell cytotoxicity, dose response, cytotoxicity control, plate reader, dry powder (AID 687026). Type of experiment: functional, cell-based.
Experiment [14] addresses Muscarinic acetylcholine receptor M5 (Homo sapiens, UniProt P08912). The experiment can be described thus: M5 receptor positive allosteric modulators, dose response, cell-based, concentration-response curve (AID 651878). Type of experiment: functional.
The target in experiment [15] is T1, Protein Wnt-3a. The experiment is described as follows: SAR analysis of small molecule antagonists of Gli-SUFU in a Wnt3a luminescent reporter assay. The class given is functional.
Experiment [16] in a line: human group III sPLA2 inhibitors, dose response, biochemical, QFRET, IC50 (AID 743457).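 Note: green fluorescence rise as the enzyme cleaves BODIPY PC-A2 in liposomes; potency for inhibition of the enzyme.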
The test system of experiment [17] is HeLa. The experiment is described as follows: HeLa cell cytotoxicity, dose response, cytotoxicity control, ATP luminescence, cherry-pick samples (AID 687004). The class given is functional, cell-based. The note with it: Homo sapiens.
The nature of experiment [18]: A549 cell cytotoxicity, dose response, cytotoxicity control, 24 h, CellTiter-Glo luminescence, cherry-picks (AID 1053115). Type of experiment: functional, cell-based. As to conditions: A549, 24 h.
A short description of experiment [19]: P. falciparum Dd2 growth inhibitors, dose response, SYBR Green, cherry-picked samples (AID 1159567). The class given is functional, cell-based.
The nature of experiment [20]: HepG2 cell cytotoxicity, dose response, cytotoxicity control, cherry-picked samples (AID 1159577). Type of experiment: functional, cell-based.
The nature of experiment [21]: miR-122 activators in hepatoma reporter cells, dose response, cell-based, Huh7 psiCHECK-miR122, Renilla luciferase, cherry-picked (AID 651956).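 Note: huh7 hepatoma cells stably carrying a psiCHECK-2 miR-122 sensor plasmid; renilla luciferase signal reporting endogenous miR-122 activity after 48 h compound exposure.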 Type of experiment: functional.
Experiment [22] is described as follows: HEK293T cytotoxicity, dose response, cytotoxicity control for miR-122 modulator project, cell-based, activator set, cherry-pick (AID 720690).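 Note: HEK293T human cells scored for general mammalian cytotoxicity.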 Type of experiment: functional.
Experiment [23] in a line: Late stage assay provider results from the probe development effort to identify inhibitors of the Plasmodium falciparum M18 Aspartyl Aminopeptidase (M18AAP): radiolabel-based cell-based dose response assay to identify compounds that inhibit P. falciparum growth in RBCs, Set 2.. Type of experiment: functional.
For experiment [24], the system named is HeLa. The experiment can be described thus: HeLa cell cytotoxicity, dose response, cytotoxicity control, 24 h, cherry-picked samples (AID 504726).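 Note: potency for cytotoxicity as loss of luminescence signal.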 Type of experiment: functional, cell-based, Homo sapiens. The note with it: Homo sapiens, 24 h.
For a further experiment, the system named is P388/ADR. The experiment can be described thus: cells. As to conditions: Mus musculus. Type of experiment: functional.
The subject of another experiment is SN12K1. The experiment is described as follows: cells. The note with it: Homo sapiens. Type of experiment: functional.
The next experiment relates to P388. The experiment can be described thus: cells. The class given is functional. The note with it: Mus musculus.
Experiment [25] addresses T2, Small ubiquitin-related modifier 1 (Homo sapiens, UniProt P63165). The experiment can be described thus: inhibitors of SUMO1 peptide binding, dose response, biochemical, fluorescence polarization, uHTS hits (AID 624382). The note with it: read-out: IC50_Mean. The class given is functional.
The target of experiment [26] is T2, Small ubiquitin-related modifier 1. The experiment can be described thus: inhibitors of SUMO1 partner interactions, dose response, biochemical, FRET (AID 624383). The class given is functional. As to conditions: read-out: IC50_Mean.
The nature of experiment [27]: HeLa cell cytotoxicity, dose response, cytotoxicity control for MgcRacGAP inhibitor project (AID 624300). Type of experiment: functional.
In experiment [28] the target is T3, Rac GTPase-activating protein 1 (Homo sapiens, UniProt Q9H0H5).
T3 sequence (Q9H0H5 whole entry): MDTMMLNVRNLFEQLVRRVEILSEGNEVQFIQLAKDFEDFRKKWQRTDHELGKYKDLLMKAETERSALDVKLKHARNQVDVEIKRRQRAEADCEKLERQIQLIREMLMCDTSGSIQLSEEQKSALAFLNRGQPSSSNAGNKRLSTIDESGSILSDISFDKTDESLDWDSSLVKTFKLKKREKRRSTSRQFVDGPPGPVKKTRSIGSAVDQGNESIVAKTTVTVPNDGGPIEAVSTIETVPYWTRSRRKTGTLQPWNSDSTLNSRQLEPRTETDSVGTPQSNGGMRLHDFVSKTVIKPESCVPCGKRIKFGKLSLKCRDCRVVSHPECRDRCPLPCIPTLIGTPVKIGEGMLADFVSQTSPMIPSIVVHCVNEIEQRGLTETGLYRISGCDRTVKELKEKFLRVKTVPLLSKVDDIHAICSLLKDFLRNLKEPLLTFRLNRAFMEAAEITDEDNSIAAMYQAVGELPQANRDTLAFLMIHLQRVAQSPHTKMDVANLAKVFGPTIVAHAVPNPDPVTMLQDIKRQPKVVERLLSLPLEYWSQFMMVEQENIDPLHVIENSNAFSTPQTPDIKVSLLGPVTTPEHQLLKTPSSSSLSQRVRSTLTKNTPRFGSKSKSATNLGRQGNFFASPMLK
The experiment is described as follows: MgcRacGAP GTPase-activating activity inhibitors, confirmation, biochemical, ADP Hunter fluorescence, primary and confirmatory (AID 624330). The class given is functional.

Experiment [29] concerns the target DNA repair protein RAD52 homolog (Homo sapiens, UniProt P43351). The class given is functional, biochemical.
The nature of experiment [30]: T. cruzi intracellular amastigote growth inhibition, dose response, imaging, CA-I/72 strain, bovine embryo skeletal muscle, dry powder (AID 651885). The class given is functional, cell-based.
A short description of experiment [31]: BHK-21 cell cytotoxicity, cytotoxicity control for flavivirus guanylyltransferase probe project, secondary screen (AID 624078). The class given is functional.
Experiment [32] in a line: HEK293T cell cytotoxicity, dose response, cytotoxicity control, luminescence plate reader, powder samples, set 4 (AID 651863). The class given is functional, cell-based. The note with it: HEK293.
Experiment [33] is described as follows: HepG2 cell cytotoxicity, dose response, cytotoxicity control, ATP luminescence, cherry-pick, activator set 2 (AID 1053143). Type of experiment: functional, cell-based.
A short description of experiment [34]: THP-1 cell cytotoxicity, dose response, cytotoxicity control for Vif-APOBEC3G degradation inhibitor project, THP-1 cells (AID 1117359). Type of experiment: functional. The note with it: Human immunodeficiency virus 1, THP-1.
The test system of the next experiment is HEK293. The experiment is described as follows: HEK293T cell cytotoxicity, dose response, cytotoxicity control, ATP luminescence, cherry-pick samples (AID 687005).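 Note: cells exposed to compound for 48 hours.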 The class given is functional, cell-based. As to conditions: Homo sapiens.
Experiment [35] in a line: HEK293 Cytotoxicity Assay Measured in Cell-Based System Using Plate Reader - 7071-01_Inhibitor_Dose_CherryPick_Activity_Set2. The class given is functional.

T2 sequence (P63165 whole entry): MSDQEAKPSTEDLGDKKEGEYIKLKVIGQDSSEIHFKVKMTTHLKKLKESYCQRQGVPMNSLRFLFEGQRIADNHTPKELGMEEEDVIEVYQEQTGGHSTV
Muscarinic acetylcholine receptor M5, sequence (P08912 whole entry): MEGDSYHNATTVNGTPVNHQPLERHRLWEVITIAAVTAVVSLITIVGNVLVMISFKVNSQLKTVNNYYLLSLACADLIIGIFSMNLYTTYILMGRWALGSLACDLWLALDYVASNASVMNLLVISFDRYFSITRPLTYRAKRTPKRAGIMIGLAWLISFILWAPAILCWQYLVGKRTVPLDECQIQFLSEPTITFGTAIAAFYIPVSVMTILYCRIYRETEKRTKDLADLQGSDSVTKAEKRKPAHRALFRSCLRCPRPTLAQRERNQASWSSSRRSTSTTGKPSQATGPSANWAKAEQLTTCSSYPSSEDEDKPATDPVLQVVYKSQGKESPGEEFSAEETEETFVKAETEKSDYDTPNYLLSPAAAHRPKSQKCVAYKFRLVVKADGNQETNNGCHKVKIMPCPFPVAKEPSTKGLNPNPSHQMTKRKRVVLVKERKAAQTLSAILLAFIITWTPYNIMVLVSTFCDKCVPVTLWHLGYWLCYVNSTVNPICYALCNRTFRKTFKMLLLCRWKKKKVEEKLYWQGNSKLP
DNA repair protein RAD52 homolog, sequence (P43351 whole entry): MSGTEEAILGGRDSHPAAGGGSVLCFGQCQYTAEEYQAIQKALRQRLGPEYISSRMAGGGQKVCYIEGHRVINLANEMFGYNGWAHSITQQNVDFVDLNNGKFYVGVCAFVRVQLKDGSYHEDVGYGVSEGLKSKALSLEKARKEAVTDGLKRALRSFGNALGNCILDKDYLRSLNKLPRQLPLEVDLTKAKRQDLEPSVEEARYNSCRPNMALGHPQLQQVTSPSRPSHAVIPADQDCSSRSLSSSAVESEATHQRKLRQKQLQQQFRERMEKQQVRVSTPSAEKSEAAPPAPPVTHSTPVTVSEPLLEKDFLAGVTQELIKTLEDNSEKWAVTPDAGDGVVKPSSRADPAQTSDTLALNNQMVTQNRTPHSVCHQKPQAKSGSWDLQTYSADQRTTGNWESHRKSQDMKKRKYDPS

For `CC(C)N1C[C@H](C)[C@@H](CN(C)Cc2ccc(Oc3ccccc3)cc2)Oc2c(cccc2-c2nnc(-c3ccncc3)o2)C1=O`, the AC50 in experiment [1] is 0.116 µM (active).

Turning to `CS(=O)(=O)N(CC(=O)NCC1CC1)c1cc(C(F)(F)F)ccc1Cl`, the EC50 in [2] came to 0.298 µM.

As to `O=C(Cn1cnc2ccccc21)Nc1cccc(S(=O)(=O)N2CCCC2)c1`, the AC50 in experiment [3] is 2.77 µM (active); in [4] it was 50.5 µM (active); in experiment [5] it was 10.1 µM (active); in [7], 2.61 µM (active); in experiment [8], 1.79 µM (active). Further, the IC50 on Protein Wnt-3a [6] is 13.1 µM (active).

Regarding `COc1cccc(S(=O)(=O)Nc2ccc3c(c2)[C@H]2C[C@H](CC(=O)NCc4ccc(Cl)cc4)O[C@@H](CO)[C@H]2O3)c1`, the AC50 in experiment [9] was 9.17 µM (active); in [10], 67 µM (active); in [11], 1.29 µM (active); in experiment [12], 19.4 µM (active); in experiment [13], > 70 µM (inactive).

Turning to `O=C1C(=O)N(CCOc2ccc(Br)cc2)c2ccc(OC(F)(F)F)cc21`, in experiment [14], the EC50 was 1.45 µM (active).

Turning to `CCN(CC)c1cc(NC(=O)c2cccc(C#N)c2)ncn1`, the IC50 at Protein Wnt-3a [15] is > 21.8 µM (inactive).

Consider `O=C(NNC(=S)Nc1ccc(Br)cc1Cl)c1ccco1`, for which the IC50 in experiment [16] was > 122 µM (inactive).

Consider `COc1ccccc1CN1CC[C@H]2[C@H](CO)Nc3ccc(C#Cc4ccccc4)cc3[C@H]21`, for which the AC50 is 10.2 µM (active) in the experiment on HeLa [17], > 60 µM (inactive) in [18], 1.45 µM (active) in experiment [19] and 11.4 µM (active) in experiment [20].

Regarding `COc1ccc(C#Cc2ccc([C@H]3[C@H](CO)N4CCCCN(C(=O)Nc5ccccc5)C[C@@H]34)cc2)cc1`, the AC50 in [21] is 6 µM (active); in experiment [22], 10 µM (active).

As for `COc1ccc(CCNc2c3ccccc3nc3ccccc23)cc1OC`, the IC50 in experiment [23] was 2.4 µM (active).

As to `COc1ccc2[nH]c3c(C)c4cc[n+](C)cc4c(C)c3c2c1`, the AC50 is 65.2 µM (active) in the experiment on HeLa [24] and < 0.15 µM (active) in experiment [29]. For the same molecule, the GI50 with P388/ADR was 55.8 µM (inactive); in the experiment with SN12K1, 0.203 µM (active); in the experiment with P388, 0.773 µM (active). Moreover, the values for the IC50 in experiment [25], in experiment [26] and in experiment [28] were > 66.6 µM (inactive), 9.55 µM (active) and 24.7 µM (active), respectively. For the same molecule, the CC50 in [27] was 100 µM (active).

Take `CC(C)N1C[C@H](C)[C@@H](CN(C)C(=O)OC(C)(C)C)Oc2c(C(=O)Nc3ccncc3)cccc2C1=O`: the IC50 in experiment [30] was > 20 µM (inactive).

Consider `Cc1cc(C)c(S(=O)(=O)Nc2cc(SCC(=O)O)c(O)c3ccccc23)c(C)c1`, for which, in experiment [31], the CC50 was 9.03 µM (active).

On to `CC(C)OC(=O)C(C(=O)C(F)(F)F)c1cc(NS(=O)(=O)c2ccccc2)c2ccccc2c1O` (stereo not given), for which, in experiment [32], the concentration at half-maximal activity (AC50) is 40.4 µM (active).

On to `O=C(NCC1CC1)c1ccc2c3n(nc2c1)-c1ccccc1CO3`, for which the AC50 in experiment [33] was 26 µM (active). In [34], the 50% cytotoxic concentration (CC50) is > 40 µM (active).

Take `COc1ccc(C#Cc2ccc3c(c2)O[C@@H](CN(C)C(C)=O)[C@@H](C)CN([C@H](C)CO)S3(=O)=O)cc1`: the AC50 with HeLa [17] was > 52 µM (inactive); with HEK293 it was 17.8 µM (active); in experiment [35], 17.8 µM (active).
